Read-outs that look alike come from different tables or passages of the source. Numbered stars: 1 amine (or outer) side, 2 acyl side, 3 side chain; on linkers, the order of the positions; unused ones are H or OH. Square brackets hold non-standard residues; d marks the D form. Peptide text beside a SMILES is read from it. * marks the point of attachment. Pipz(1-CH2CO,4-CH2CH2NH) = O=C(CN1CCN(CCN[*:1])CC1)[*:2]; X1 = CC[C@@]1(O*)C(=O)OCc2c1cc1n(c2=O)Cc2cc3ccccc3nc2-1; Suc = O=C(CCC(=O)[*:2])[*:1]; Nle = CCCC[C@H](N)C(=O)O; AEEA = NCCOCCOCC(=O)O; βAla = NCCC(=O)O
Assays:
[1] = molecular target: T1, hSSTR-1 (Homo sapiens, UniProt P30872); assay: Somatostatin receptor radioligand binding, hSSTR-1 (CHO-K1 membranes); details: read-out: Ki hSSTR1 ± (SEM)
T1 construct: expressed in transfected cells; host or cells: CHO-K1
T1 sequence (P30872 whole entry): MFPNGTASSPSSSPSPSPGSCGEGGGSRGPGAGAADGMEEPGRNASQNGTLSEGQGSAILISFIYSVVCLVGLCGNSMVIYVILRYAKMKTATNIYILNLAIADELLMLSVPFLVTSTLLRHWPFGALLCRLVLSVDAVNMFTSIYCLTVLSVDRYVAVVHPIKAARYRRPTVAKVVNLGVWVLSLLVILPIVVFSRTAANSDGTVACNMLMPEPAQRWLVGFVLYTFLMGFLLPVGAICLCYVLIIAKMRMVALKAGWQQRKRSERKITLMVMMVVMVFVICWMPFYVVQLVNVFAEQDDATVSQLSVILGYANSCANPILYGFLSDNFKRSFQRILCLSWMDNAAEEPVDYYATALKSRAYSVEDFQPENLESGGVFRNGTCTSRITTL
Procedure: Membranes for in vitro receptor binding assays were obtained by homogenizing (Polytron setting 6, 15 sec) CHO-K1 cells expressing human somatostatin receptor subtypes hSSTR-1, hSSTR-2, hSSTR-3, hSSTR-4 or hSSTR-5 in ice-cold 50 mM Tris-HCl. The homogenized cells were centrifuged twice at 39,000 g for 10 minutes with an intermediate resuspension in fresh buffer. The final pellets were resuspended in 10 mM Tris-HCl to prepare the cell membrane homogenate for use in the binding assay.
The final assay volume was 0.3 ml.
The cell membrane homogenate was incubated with the radioligands for 90 minutes at 25° C. The incubations were terminated by rapid filtration through GF/C filters pre-soaked in 0.3% polyethylenimine using a Brandel® filtration manifold (Gaithersberg, Md., U.S.A.). Each tube and filter was washed three times with 5-ml aliquots of ice-cold buffer. Specific binding was defined as the total radioligand bound minus that bound in the presence of 1000 nM SRIF-14 (for hSSTR-1, hSSTR-3, hSSTR-4 or hSSTR-5), or 1000 nM DPhe-c(Cys-Tyr-D-Trp-Lys-Abu-Cys)-Thr-NH2 for hSSTR-2.

[2] = Half-life determination in mouse plasma (LC-MS); format: in vitro ADME; details: 37° C.
Procedure: (§1) Samples containing approximately 50 μg/ml up to and including approximately 500 μg/ml of test compound according to Formula IA or IB or II was added to 450 μl human or mouse plasma, vortexed briefly and incubated at 37° C. At various time intervals, e.g., 0, 0.5, 1, 2, 4, 6, 8, 24, 36 and 48 hours, 50 μl of the compound-plasma mixture was added to 150 μl acetonitrile in a microcentrifuge tube. The mixture was vortexed, centrifuged for 5 minutes at 10K RPM, and 135 μl of supernatant was transferred to an injection vial. The recovered supernatant was analyzed by using a liquid chromatography-mass spectrophotometer system (LC-MS) consisting of a Finnigan Deca XP® mass spectrometer with an ESI probe at the positive ion mode. HPLC separation was carried out on a Luna 3μ C8 (2)® 3×50 mm column with a gradient decreasing from 100% A to 80% B for 10 minutes at a flow rate of 0.25 ml/min. Buffer A was 0.1% acetic acid in water and buffer B was 0.1% acetic acid acetonitrile.

[3] = molecular target: T2, hSSTR-3 (Homo sapiens, UniProt P32745); assay: Somatostatin receptor radioligand binding, hSSTR-3 (CHO-K1 membranes); details: read-out: Ki hSSTR3 ± (SEM)
T2 construct: expressed in transfected cells; host or cells: CHO-K1
T2 sequence (P32745 whole entry): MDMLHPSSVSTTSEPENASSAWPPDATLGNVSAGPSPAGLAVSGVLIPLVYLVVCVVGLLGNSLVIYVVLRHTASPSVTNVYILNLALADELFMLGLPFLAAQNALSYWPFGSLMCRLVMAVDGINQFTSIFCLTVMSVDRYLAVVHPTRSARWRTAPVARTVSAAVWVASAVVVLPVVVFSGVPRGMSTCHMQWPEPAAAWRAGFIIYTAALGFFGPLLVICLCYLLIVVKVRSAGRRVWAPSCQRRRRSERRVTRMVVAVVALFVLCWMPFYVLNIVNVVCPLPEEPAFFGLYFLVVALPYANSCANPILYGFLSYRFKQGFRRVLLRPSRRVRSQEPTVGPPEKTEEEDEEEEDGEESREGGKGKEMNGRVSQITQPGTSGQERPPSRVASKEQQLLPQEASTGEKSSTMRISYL
Procedure: For the hSSTR-1, hSSTR-3, and hSSTR-4 assays, aliquots of the membrane preparations were incubated for 90 minutes at 25° C. with 0.05 nM [^125I-Tyr11]SRIF-14 in 50 mM HEPES (pH 7.4) buffer containing 0.2% BSA and 5 mM MgCl2. The final assay volume was 0.3 ml. For the hSSTR-2 and hSSTR-5 assays, [^125I]-[4-(2-hydroxyethyl)]-1-piperazinylacetyl-D-Phe-c(Cys-Tyr-D-Trp-Lys-Abu-Cys)-Thr-NH2 (0.05 nM) and [^125I]-D-Phe-c(Cys-Tyr-D-Trp-Lys-Val-Cys)-Thr-NH2 were employed as the radioligands, respectively.

[4] = molecular target: T3, hSSTR-4 (Homo sapiens, UniProt P31391); assay: Somatostatin receptor radioligand binding, hSSTR-4 (CHO-K1 membranes); details: read-out: Ki hSSTR4 ± (SEM)
T3 construct: expressed in transfected cells; host or cells: CHO-K1
T3 sequence (P31391 whole entry): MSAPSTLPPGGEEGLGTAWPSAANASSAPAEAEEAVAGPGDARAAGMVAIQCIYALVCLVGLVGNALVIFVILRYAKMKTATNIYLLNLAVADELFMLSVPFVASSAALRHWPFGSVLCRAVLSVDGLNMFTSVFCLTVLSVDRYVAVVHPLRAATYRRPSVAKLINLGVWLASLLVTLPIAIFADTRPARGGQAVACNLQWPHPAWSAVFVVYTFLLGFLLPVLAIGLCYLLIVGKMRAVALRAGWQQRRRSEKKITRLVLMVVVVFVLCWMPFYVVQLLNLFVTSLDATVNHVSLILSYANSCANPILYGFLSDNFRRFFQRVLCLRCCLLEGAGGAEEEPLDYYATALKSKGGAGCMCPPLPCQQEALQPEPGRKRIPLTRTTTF

[5] = Half-life determination in human plasma (LC-MS); format: in vitro ADME; details: 37° C.
Procedure: as §1

[6] = molecular target: T4, bombesin/GRP receptor (Rattus norvegicus, UniProt P52500); assay: Bombesin/GRP radioligand binding (AR42J rat pancreas cell membranes); details: read-out: Ki bombesin receptor ± (SEM)
T4 construct: AR42J rat pancreas cells expressing the native bombesin/GRP receptor; endogenous in cells; host or cells: AR42J rat pancreas cells
T4 sequence (P52500 whole entry): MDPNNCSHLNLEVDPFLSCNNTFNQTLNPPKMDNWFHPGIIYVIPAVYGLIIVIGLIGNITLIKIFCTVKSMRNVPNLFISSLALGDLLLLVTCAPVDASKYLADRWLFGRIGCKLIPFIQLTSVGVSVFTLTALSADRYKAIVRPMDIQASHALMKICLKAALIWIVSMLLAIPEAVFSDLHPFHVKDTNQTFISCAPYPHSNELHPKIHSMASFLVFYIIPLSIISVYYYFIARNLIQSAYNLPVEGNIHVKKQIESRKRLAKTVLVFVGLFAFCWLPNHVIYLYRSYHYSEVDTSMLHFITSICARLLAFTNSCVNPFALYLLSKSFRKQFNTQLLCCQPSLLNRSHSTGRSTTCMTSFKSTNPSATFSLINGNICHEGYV
Procedure: Membranes were prepared for radioligand binding studies by homogenization of AR42J rat pancreas cells expressing the native bombesin/GRP receptor in 20 ml of ice-cold 50 mM Tris-HCl with a Brinkman Polytron® (Westbury, N.Y., U.S.A.) at settings of 6, 15 seconds. The homogenates were washed twice by centrifugation (39,000 g/10 minutes) and the final pellets were resuspended in 50 mM Tris-HCl containing 2.5 mM MgCl2 and 0.1% BSA. […] The filters were then washed three times with 5-ml aliquots of ice-cold 50 mM Tris-HCl. The bound radioactivity trapped on the filters was counted by gamma spectrometry (Wallac LKB®, Gaithersburg, Md., U.S.A.).

[7] = [125I-Tyr11]SRIF-14, value of 1000 indicates at least 1000

Compound	Ki [1]	half-life [2]	Ki [3]	Ki [4]	half-life [5]	Ki [6]	Ki [1, 7]	Ki [3, 7]	Ki [4, 7]
CC[C@@H]1NC(=O)[C@H](CCCCN)NC(=O)[C@@H](Cc2c[nH]c3ccccc23)NC(=O)[C@H](Cc2ccc(O)cc2)NC(=O)[C@@H](NC(=O)[C@@H](Cc2ccccc2)NC(=O)CN2CCN(CCNC(=O)COCCOCCNC(=O)COCCOCCNC(=O)COCCOCCNC(=O)COCCOCCNC(=O)CCC(=O)N[C@@H](CC3CCCCC3)C(=O)O[C@]3(CC)C(=O)OCc4c3cc3n(c4=O)Cc4cc5ccccc5nc4-3)CC2)CSSC[C@@H](C(=O)N[C@H](C(N)=O)[C@@H](C)O)NC1=O [Example 1, Camptothecin-rvCha-Suc-(Doc)4-Aepa-DPhe-c(Cys-Tyr-DTrp-Lys-Abu-Cys)-Thr-NH2]	≥ 1000 nM	2 h	155 nM	≥ 1000 nM	4.7 h	–	–	–	–
CC[C@@H]1NC(=O)[C@H](CCCCN)NC(=O)[C@@H](Cc2c[nH]c3ccccc23)NC(=O)[C@H](Cc2ccc(O)cc2)NC(=O)[C@@H](NC(=O)[C@@H](Cc2ccccc2)NC(=O)CN2CCN(CCNC(=O)COCCOCCNC(=O)COCCOCCNC(=O)COCCOCCNC(=O)COCCOCCNC(=O)CCC(=O)N[C@@H](CCCNC(=N)N)C(=O)O[C@]3(CC)C(=O)OCc4c3cc3n(c4=O)Cc4cc5ccccc5nc4-3)CC2)CSSC[C@@H](C(=O)N[C@H](C(N)=O)[C@@H](C)O)NC1=O [Example 7, Camptothecin-rvArg-Suc-(Doc)4-Aepa-D-Phe-c(Cys-Tyr-D-Trp-Lys-Abu-Cys)-Thr-NH2]	≥ 1000 nM	1.2 h	479 nM	≥ 1000 nM	1.5 h	–	–	–	–
CC[C@@H]1NC(=O)[C@H](CCCCN)NC(=O)[C@@H](Cc2c[nH]c3ccccc23)NC(=O)[C@H](Cc2ccc(O)cc2)NC(=O)[C@@H](NC(=O)[C@@H](Cc2ccccc2)NC(=O)CN2CCN(CCNC(=O)COCCOCCNC(=O)COCCOCCNC(=O)COCCOCCNC(=O)COCCOCCNC(=O)CCC(=O)N[C@@H](CC)C(=O)O[C@]3(CC)C(=O)OCc4c3cc3n(c4=O)Cc4cc5ccccc5nc4-3)CC2)CSSC[C@@H](C(=O)N[C@H](C(N)=O)[C@@H](C)O)NC1=O [Example 12, Camptothecin-rvAbu-Suc-(Doc)4-Aepa-D-Phe-c(Cys-Tyr-D-Trp-Lys-Abu-Cys)-Thr-NH2]	≥ 1000 nM	6 h	–	≥ 1000 nM	0.7 h	–	–	–	–
CC[C@@H]1NC(=O)[C@H](CCCCN)NC(=O)[C@@H](Cc2c[nH]c3ccccc23)NC(=O)[C@H](Cc2ccc(O)cc2)NC(=O)[C@@H](NC(=O)[C@@H](Cc2ccccc2)NC(=O)CN2CCN(CCNC(=O)COCCOCCNC(=O)COCCOCCNC(=O)COCCOCCNC(=O)COCCOCCNC(=O)CCC(=O)N[C@@H](C(=O)O[C@]3(CC)C(=O)OCc4c3cc3n(c4=O)Cc4cc5ccccc5nc4-3)C(C)C)CC2)CSSC[C@@H](C(=O)N[C@H](C(N)=O)[C@@H](C)O)NC1=O [Example 13, Camptothecin-rvD-Val-Suc-(Doc)4-Aepa-D-Phe-c(Cys-Tyr-D-Trp-Lys-Abu-Cys)-Thr-NH2]	≥ 1000 nM	7.7 h	–	≥ 1000 nM	0.3 h	–	–	–	–
CC[C@@H]1NC(=O)[C@H](CCCCN)NC(=O)[C@@H](Cc2c[nH]c3ccccc23)NC(=O)[C@H](Cc2ccc(O)cc2)NC(=O)[C@@H](NC(=O)[C@@H](Cc2ccccc2)NC(=O)CN2CCN(CCNC(=O)COCCOCCNC(=O)COCCOCCNC(=O)COCCOCCNC(=O)COCCOCCNC(=O)CCC(=O)N[C@@H](C)C(=O)O[C@]3(CC)C(=O)OCc4c3cc3n(c4=O)Cc4cc5ccccc5nc4-3)CC2)CSSC[C@@H](C(=O)N[C@H](C(N)=O)[C@@H](C)O)NC1=O [Example 14, Camptothecin-rvAla-Suc-(Doc)4-Aepa-D-Phe-c(Cys-Tyr-D-Trp-Lys-Abu-Cys)-Thr-NH2]	≥ 1000 nM	4.6 h	≥ 1000 nM	≥ 1000 nM	1.3 h	–	–	–	–
CC[C@@H]1NC(=O)[C@H](CCCCN)NC(=O)[C@@H](Cc2c[nH]c3ccccc23)NC(=O)[C@H](Cc2ccc(O)cc2)NC(=O)[C@@H](NC(=O)[C@@H](Cc2ccccc2)NC(=O)CN2CCN(CCNC(=O)COCCOCCNC(=O)COCCOCCNC(=O)COCCOCCNC(=O)COCCOCCNC(=O)CCC(=O)N[C@H](C(=O)O[C@]3(CC)C(=O)OCc4c3cc3n(c4=O)Cc4cc5ccccc5nc4-3)C(C)C)CC2)CSSC[C@@H](C(=O)N[C@H](C(N)=O)[C@@H](C)O)NC1=O [Example 15, Camptothecin-rvVal-Suc-(Doc)4-Aepa-D-Phe-c(Cys-Tyr-D-Trp-Lys-Abu-Cys)-Thr-NH2]	≥ 1000 nM	5 h	–	≥ 1000 nM	0.4 h	–	–	–	–
CC[C@@H]1NC(=O)[C@H](CCCCN)NC(=O)[C@@H](Cc2c[nH]c3ccccc23)NC(=O)[C@H](Cc2ccc(O)cc2)NC(=O)[C@@H](NC(=O)[C@@H](Cc2ccccc2)NC(=O)CN2CCN(CCNC(=O)COCCOCCNC(=O)COCCOCCNC(=O)COCCOCCNC(=O)COCCOCCNC(=O)CCCC(=O)O[C@]3(CC)C(=O)OCc4c3cc3n(c4=O)Cc4cc5ccccc5nc4-3)CC2)CSSC[C@@H](C(=O)N[C@H](C(N)=O)[C@@H](C)O)NC1=O [Example 16, Camptothecin-Glut-(Doc)4-Aepa-D-Phe-c(Cys-Tyr-D-Trp-Lys-Abu-Cys)-Thr-NH2]	≥ 1000 nM	4.2 h	–	≥ 1000 nM	3.6 h	–	–	–	–
CCCC[C@H](NC(=O)[C@H](CC(C)C)NC(=O)[C@H](Cc1c[nH]cn1)NC(=O)CCNC(=O)[C@@H](NC(=O)[C@H](C)NC(=O)[C@H](Cc1c[nH]c2ccccc12)NC(=O)[C@H](CCC(N)=O)NC(=O)[C@H](CCCC)NC(=O)CN1CCN(CCNC(=O)COCCOCCNC(=O)COCCOCCNC(=O)COCCOCCNC(=O)COCCOCCNC(=O)CCC(=O)NCC(=O)O[C@]2(CC)C(=O)OCc3c2cc2n(c3=O)Cc3cc4ccccc4nc3-2)CC1)C(C)C)C(N)=O [Example 20, Camptothecin-rvGly-Suc-(Doc)4-Aepa-Nle-Gln-Trp-Ala-Val-β-Ala-His-Leu-Nle-NH2] ({X1-Gly-Suc-AEEA-AEEA-AEEA-AEEA}-[Pipz(1-CH2CO,4-CH2CH2NH)][Nle]QWAV[βAla]HL[Nle]-NH2)	–	2.8 h	–	–	4.8 h	4.57 nM	–	–	–
CCCC[C@H](NC(=O)[C@H](CC(C)C)NC(=O)[C@H](Cc1c[nH]cn1)NC(=O)CCNC(=O)[C@@H](NC(=O)[C@H](C)NC(=O)[C@H](Cc1c[nH]c2ccccc12)NC(=O)[C@H](CCC(N)=O)NC(=O)CCCCCNC(=O)CN1CCN(CCNC(=O)COCCOCCNC(=O)COCCOCCNC(=O)COCCOCCNC(=O)COCCOCCNC(=O)CCC(=O)NCC(=O)O[C@]2(CC)C(=O)OCc3c2cc2n(c3=O)Cc3cc4ccccc4nc3-2)CC1)C(C)C)C(N)=O [Example 21, Camptothecin-rvGly-Suc-(Doc)4-Aepa-Ahx-Gln-Trp-Ala-Val-β-Ala-His-Leu-Nle-NH2]	–	5.4 h	–	–	3.2 h	1.9 nM	–	–	–
Camptothecin-rvD-Asp-Suc-(Doc)4-Aepa-D-Phe-c(Cys-Tyr-D-Trp-Lys-Abu-Cys)-Thr-NH2 Camptothecin-rvAsp-Suc-(Doc)4-Aepa-D-Phe-c(Cys-Tyr-D-Trp-Lys-Abu-Cys)-Thr-NH2 [5A′]	–	–	–	–	–	–	≥ 1000 nM	≥ 1000 nM	≥ 1000 nM

Source: patent US8236762B2, “Peptide-cytotoxic conjugates” (IPSEN Pharma S.A.S., priority 2006, dated 2012)
